Test results published in patent publication EP0998939A1, “Chalcone plant extracts for use in therapy” (THE SCHOOL OF PHARMACY, UNIVERSITY OF LONDON, priority 1998, dated 2000).

What was measured:
[1] = system: Blood platelets; experiment: Inhibition of blood platelet aggregation (TPA or ADP induced) in platelet rich plasma; format: cell-based, human; conditions: for Percentage Inhibition of ADP Induced Aggregation: ADP 6.4 µg; for Percentage Inhibition of TPA Induced Aggregation: TPA 0.5µg
Description: Blood platelets release inflammatory mediators in response to an external stimulus, which affect the proliferation of the cells, which is an important part of the disease psoriasis. • 1. Male human blood was collected via venipucture of the forearm directly in to anticoagulant buffer, from healthy donors who had denied any medication for two weeks, and centrifuged at 1000rpm for 20 minutes at room temperature. • 2. The supernatant was employed as platelet rich plasma (PRP). Platelet poor plasma (PPP) was obtained by centrifuging 1ml of PRP at 11,000 rpm for 10 minutes. • 3. Inhibition of platelet aggregation was tested by adding 2.5µl of a known concentration (containing 10µg or 50µg) of the test compound to a 500µl sample ofPRP for one minute. An aggregation agent was then added as a solution to the sample in a 2.5µl quantity (containing TPA 0.5,µg or ADP 6.4 µg). Aggregation was measured using a dual channel aggregometer . • 4. Aggregation was taken as the % change in light transmission compared to the maximum change produced by TPA or ADP plus the control solution. PRP was used as a standard for zero light transmission and PP for 100% light transmission.

[2] = system: male Wistar rats; experiment: UV-B induced erythema (dermatitis) in rat, epidermal thickness and number of epidermal cell layers; format: in vivo; conditions: five days; for No. of cells (epidermal proliferation as compared to the control, no treatment) / Thickness (epidermal thickening as compared to the control, no treatment): control = 100
Description: Rat UV-B induced dermatitis is characterised by a brownish red lesion with scab formation. Histologically, microvascular dilation, intraepidermal accumulation ofleukocytes and hyperproliferation of epidermal cells are all very similar to the symptoms of psoriasis in man (Nakaguma,H., Int. J.ofExp.Path, 76:65-73, 1995) • 1. Hair on the dorsal skin of male Wistar rats (180g) was clipped and shaved, whilst the rats were under anaesthesia, 24 hours prior to the experiment. • 2. The rats were covered by a black plastic sheeting, with two rectangular holes (about 1cm^2) cut out, thus allowing two exposure sites on the dorsal skin whilst protecting the rest of the animal. • 3. The rats were then exposed to UV-B light (302nm) at a distance of 10cm for six minutes and thirty seconds. The total W-B exposure was 2.4J/cm^2 as measured using a UV-X radiometer. • 4. The test compound was then placed onto one of the exposed areas and an unexposed area at a concentration of 100µg/5µl, in a suitable vehicle solution. • 5. Application of the test compound was repeated for five days. • 6. Histological post-mortem sections were taken on the fifth day, and stained using haematoxylin and eosin. The number ofepidermal cell layers and the epidermal thickness was counted and measured at random. Five animals were used per test group.

[3] = system: swiss 3T3 mouse fibroblast cells; experiment: Cell culture 3[H] thymidine assay, Example 6.1 cytotoxicity testing (normal cell growth); format: cell-based; conditions: cytotoxicity, no TPA
Description: (§1) Cells used were swiss 3T3 mouse fibroblast cells • 1. 6 x 24 well plates were required for each experiment. • 2. Cells were removed from the standard tissue culture flask using a 1% solution of EDTA and resuspended in 10 ml of media and pipetted off into a falcon tube. • 3. The cells were then spun for 5 minutes at about 2,000rpm. • 4. The existing media was removed, and the cells again resuspended in 10ml of 10% foetal calf serum (FCS) and vortexed. • 5. The 10ml of suspension was then added to 140ml of media and mixed in a sterile jar. 1ml of the media cell suspension was then placed into each well and the plates incubated until confluent, three days .
(§2) • 1. [PCl]Cells were dosed with the test compounds (as specified below) 2 days prior to the addition of 3 [H]thymidine. The cells could only be dosed with a 0.5% solution, 5µl test solution in 1ml cellsuspension i.e. 5µl in 1ml, (TPA - 0.5µM). • 2. 0.5µl of 3[H] thymidine was added per well, therefore 72µl was added to 144µl of media (1%F.C.S.) to dose the corresponding six plates. • 3. 100µl of the media was taken to measure the measure the radioactive dose […], and added to 4ml of scintillation fluid. • 4. The radioactive media was then transferred to sterile specimen tubes and dosed with the test compounds before adding to the cells. • 5. After four hours ofbeing pulsed with radiolabelled thymidine (0.5µCi/ml) the media was removed and washed down the sink. • 6. The cells were washed twice with ice cold phosphate buffered saline (PBS), 0.5ml per well, and incubated for 30 min using ice cold 5% trichloroacetic acid (TCA) ( 1ml) per well at room temperature. • 8. The TCA was then removed and another 1ml of 5% TCA was added for 5 minutes. After the TCA was removed and 0.3NaOH and 0.1% sodium dodecyl sulphate added to each well for 30 minutes (1ml/well). • 9. The contents of each well was added to scintillation vials containing 4ml of scintillation fluid and each sample counted for four minutes using a scintillation counter. Three different assays were carried out using this protocol; • 6.1. Cytotoxicity testing of the compounds. After 48 hours of incubation and the cells were confluent a predetermined quantity of the test compounds was added to the cells. • 6.2. Inhibition of TPA induced proliferation. After 48 hours a preditermined quantity concentration of the test compounds was added to the cells as well as 0.5um of TPA. […] Inhibition of TPA induced proliferation. After 48 hours a predetermined quantity concentration of the test compounds was added to the cells for 24 hours, at 72 hours the media was changed again to contain both test compound and 0.5µM of the TPA. The objective of this experiment was to observe whether the prior incubation with the test compound had any effect on the TPA induced proliferation of the cells.

[4] = system: swiss 3T3 mouse fibroblast cells; experiment: Cell culture 3[H] thymidine assay, Example 6.2 inhibition of TPA induced proliferation (compound added together with TPA); format: cell-based; conditions: with 0.5µM TPA
Description: as §1, §2

[5] = system: swiss 3T3 mouse fibroblast cells; experiment: Cell culture 3[H] thymidine assay, Example 6.3 inhibition of TPA induced proliferation (24 hours prior incubation with compound); format: cell-based; conditions: compound 24 hours before compound + 0.5µM TPA
Description: as §1, §2

[6] = system: human polymorphonuclear neutrophils; conditions: properties associated with inflammatory processes; cited from earlier work
[7] = system: platelet aggregation; conditions: in rats, compared with aspirin; cited from earlier work
[8] = Conc. 10µg test compound in 500µl PRP
[9] = Conc. 50µg test compound in 500µl PRP
[10] = Active Compound Only, unexposed area, 100µg/5µl
[11] = UV Exposure + Active Compound versus UV Exposure, 100µg/5µl
[12] = UV Exposure + Active Compound, 100µg/5µl topical

## O=C(/C=C/c1ccc(O)cc1)c1ccc(O)cc1O [Isoliquiritigenin, isoliquiritigenin]
[1]; [8]
  Percentage Inhibition of ADP Induced Aggregation: 20%
  Percentage Inhibition of TPA Induced Aggregation: 3%
[1]; [9]
  Percentage Inhibition of ADP Induced Aggregation: 26%
  Percentage Inhibition of TPA Induced Aggregation: 13%
[1]; comparison among the three chalcones, especially ADP induced aggregation
  inhibiting blood platelet aggregation, result in words: most active
[2]; [10]
  No. of cells (epidermal proliferation as compared to the control, no treatment): 103%
  Thickness (epidermal thickening as compared to the control, no treatment): 102%
[2]; [11]
  Percentage inhibition of epidermal proliferation (No. of cells, in brackets): (77) %
  Percentage inhibition of epidermal thickening (in brackets): (71) %
[2]; [12]
  No. of cells (epidermal proliferation as compared to the control, no treatment): 119%
  Thickness (epidermal thickening as compared to the control, no treatment): 116%
[3]; Concentration 0.01 µg
  Percentage Inhibition of 3T3 Swiss Fibroblast Growth, Example 6.1: 20%
[3]; Concentration 0.1 µg
  Percentage Inhibition of 3T3 Swiss Fibroblast Growth, Example 6.1: 18%
[3]; Concentration 1 µg
  Percentage Inhibition of 3T3 Swiss Fibroblast Growth, Example 6.1: 32%
[3]; Concentration 10 µg
  Percentage Inhibition of 3T3 Swiss Fibroblast Growth, Example 6.1: 32%
[3]; Concentration 20 µg
  Percentage Inhibition of 3T3 Swiss Fibroblast Growth, Example 6.1: 54%
[4]; Concentration 0.01 µg
  Percentage Inhibition of 3T3 Swiss Fibroblast Growth, Example 6.2: 6%
[4]; Concentration 0.1 µg
  Percentage Inhibition of 3T3 Swiss Fibroblast Growth, Example 6.2: +4%
[4]; Concentration 1 µg
  Percentage Inhibition of 3T3 Swiss Fibroblast Growth, Example 6.2: 4%
[4]; Concentration 10 µg
  Percentage Inhibition of 3T3 Swiss Fibroblast Growth, Example 6.2: 28%
[4]; Concentration 20 µg
  Percentage Inhibition of 3T3 Swiss Fibroblast Growth, Example 6.2: 29%
[5]; Concentration 0.01 µg
  Percentage Inhibition of 3T3 Swiss Fibroblast Growth, Example 6.3: 31%
[5]; Concentration 0.1 µg
  Percentage Inhibition of 3T3 Swiss Fibroblast Growth, Example 6.3: 39%
[5]; Concentration 1 µg
  Percentage Inhibition of 3T3 Swiss Fibroblast Growth, Example 6.3: 50%
[5]; Concentration 10 µg
  Percentage Inhibition of 3T3 Swiss Fibroblast Growth, Example 6.3: 47%
[5]; Concentration 20 µg
  Percentage Inhibition of 3T3 Swiss Fibroblast Growth, Example 6.3: 61%
[6]
  effect on degranulation in human polymorphonuclear neutrophils: had no effect
[7]
  level of inhibition of platelet aggregation: comparable to aspirin
